Experimental findings from paper PMC6597546, “Identification of a potent benzoxaborole drug candidate for treating cryptosporidiosis” (Nature Communications, 2019) are described below.

In general, EC50 refers to the concentration at which the effect is half-maximal. In general, EC90 refers to the concentration needed for an effect of 90%. High values mean a need for much substance, low ones an effect from little substance. What is called microsomal CLint is a measure of how fast metabolising enzymes remove a compound, apart from limits set by blood flow. A low value points to greater metabolic stability.

One series addresses T1, hERG K+ ion channel (Homo sapiens, UniProt Q12809).
T1 construct: Ricerca Biosciences (Taipei, Taiwan), contract laboratory
Kind of series: hERG radioligand binding competition. Particulars: 10 µM test compound, 1 h at 25 °C. As to the method: In vitro safety profiling studies were conducted by Ricerca Biosciences (Taipei, Taiwan) and WuXi AppTec (Suzhou, China). Ricerca performed a Lead Profiling and Adverse Reaction Enzyme panel of 109 off-target enzymes and receptors. This included the hERG K+ ion channel, which is associated with cardiac tachyarrhythmias, and used a radioligand binding competition format with 10 µM test compound for 1 h at 25 °C. For the enzyme and receptor panel, competitive inhibition at 10 µM of test compound was the most common assay format. The AMES bacterial reverse mutation assay detects point mutations in Escherichia coli and Salmonella typhimurium as an indicator of mutagenic activity. Bacterial strains were obtained from Molecular Toxicology (Boone, NC).
(hERG is a cardiac potassium channel; its block is linked to QT prolongation.)

Another series deals with C. parvum. Put plainly: C. parvum growth inhibition in HCT-8 cells (follow-up assay, Vicia villosa lectin staining). It is filed as cell-based, Cryptosporidium parvum. The method, then:
Follow-up assays were performed at the University of Vermont (UVM) and Calibr at Scripps Research by infection of the colonic adenocarcinoma cell line HCT-8 (ATCC CCL-244) and staining with the Vicia villosa lectin and DAPI[17],[32]. The FBS concentrations and parasites used for these assays were as indicated; parasite isolates and sources included C. parvum Iowa isolate oocysts purchased from Bunch Grass Farm (Deary, ID), C. parvum Iowa isolate oocysts purchased from the Sterling Laboratory (University of Arizona, Tucson, AZ), wild type C. parvum oocysts provided by Dr. Jenni Zambriski (Virginia Tech, Blacksburg, VA), and the C. hominis TU502 isolate purchased from Dr. Saul Tzipori (Tufts University Cummings School of Veterinary Medicine, North Grafton, MA). […] Amphotericin B (Sigma, catalog# A2942) was added to the culture media at 0.1 to 0.5 µg per mL for the DMC1 dose response assays.

A short description of series [1]: Liver microsome Clint (human). It is filed as in vitro ADME. To be noted: liver microsomes. (In general: Microsomes from liver hold many membrane-bound enzymes, among them those of drug oxidation.)

Several values for one entry are separate records, joined by “and”; a condition that tells them apart may be missing. Equal values may be shown once. Read-outs that look alike come from different tables or passages of the source. A value given as a limit tells only on which side of the number the result lay.

T1 sequence (Q12809 whole entry): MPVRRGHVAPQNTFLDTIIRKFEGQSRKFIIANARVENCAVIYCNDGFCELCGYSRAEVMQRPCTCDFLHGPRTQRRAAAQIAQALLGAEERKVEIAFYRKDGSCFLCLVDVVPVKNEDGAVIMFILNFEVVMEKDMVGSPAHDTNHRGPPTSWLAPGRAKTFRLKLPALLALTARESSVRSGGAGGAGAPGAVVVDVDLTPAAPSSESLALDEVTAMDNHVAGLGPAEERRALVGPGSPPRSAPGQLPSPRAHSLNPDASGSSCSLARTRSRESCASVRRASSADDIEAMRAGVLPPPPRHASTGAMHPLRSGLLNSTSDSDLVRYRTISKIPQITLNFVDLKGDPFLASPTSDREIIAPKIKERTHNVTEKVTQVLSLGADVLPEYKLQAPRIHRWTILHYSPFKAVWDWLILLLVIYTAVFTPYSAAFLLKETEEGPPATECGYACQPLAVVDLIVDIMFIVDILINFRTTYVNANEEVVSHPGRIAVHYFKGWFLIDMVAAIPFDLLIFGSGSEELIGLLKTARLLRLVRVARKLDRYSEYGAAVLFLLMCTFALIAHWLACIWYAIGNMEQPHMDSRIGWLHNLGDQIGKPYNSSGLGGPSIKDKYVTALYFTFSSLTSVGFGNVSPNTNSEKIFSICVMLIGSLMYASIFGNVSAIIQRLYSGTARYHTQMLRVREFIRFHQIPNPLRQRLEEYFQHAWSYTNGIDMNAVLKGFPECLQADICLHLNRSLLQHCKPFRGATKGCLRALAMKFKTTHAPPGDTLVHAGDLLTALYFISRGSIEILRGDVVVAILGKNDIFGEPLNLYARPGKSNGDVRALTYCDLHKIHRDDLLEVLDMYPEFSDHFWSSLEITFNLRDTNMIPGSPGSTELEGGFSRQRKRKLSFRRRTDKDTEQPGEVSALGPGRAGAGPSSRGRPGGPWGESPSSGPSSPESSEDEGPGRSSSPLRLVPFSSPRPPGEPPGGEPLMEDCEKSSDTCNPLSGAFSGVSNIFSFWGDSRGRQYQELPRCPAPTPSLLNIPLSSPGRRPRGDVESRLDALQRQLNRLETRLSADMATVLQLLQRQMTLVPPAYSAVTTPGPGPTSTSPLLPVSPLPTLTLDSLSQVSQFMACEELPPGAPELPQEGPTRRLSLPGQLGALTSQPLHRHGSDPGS

Turning to `CC1(C)OB(O)c2cc(NC(=O)c3ccc(-n4cccn4)cc3Cl)ccc21` [AN7973], on hERG K+ ion channel, the hERG inhibition entry is listed as “negative”. In addition, the EC50 in the series with C. parvum (Bunch Grass Farm (BGF) C. parvum Iowa isolate, HCT-8 cells, 48 h exposure, read-out: EC50) is 130 nM; in the series on C. parvum (Cryptosporidium parvum, HCT-8, in Vicia villosa, 48 h, Bunch Grass Farm (BGF) C. parvum Iowa isolate, HCT-8 cells, 48 h exposure, read-out: EC50), 130 to 430 nM; in the series on C. parvum (Cryptosporidium parvum, HCT-8, in Vicia villosa, Iowa (BGF, 10%FBS), HCT-8, single replicates, unit inferred, read-out: In vitro efficacy (Fig 2b, EC50)), 116 nM; with C. parvum (Cryptosporidium parvum, HCT-8, in Vicia villosa, read-out: In vitro efficacy (Fig 2b, EC50)), 363 nM; in the series with C. parvum (Field isolate (2%FBS), HCT-8, single replicates, unit inferred, read-out: In vitro efficacy (Fig 2b, EC50)) it was 226 nM and 231 nM and 673 nM and 304 nM; in the series on C. parvum (Iowa (BGF, 2%FBS), HCT-8, single replicates, unit inferred, read-out: In vitro efficacy (Fig 2b, EC50)) it was 459 nM and 606 nM and 233 nM and 334 nM. Also, the EC50 in the series with C. parvum (Iowa (BGF, 10%FBS), HCT-8, single replicates, unit inferred, read-out: In vitro efficacy (Fig 2b, EC50)) is 163 nM and 128 nM; in the series on C. parvum (Iowa (Sterling Lab, 2%FBS), HCT-8, single replicates, unit inferred, read-out: In vitro efficacy (Fig 2b, EC50)), 412 nM and 206 nM and 290 nM and 456 nM and 232 nM. In the series on C. parvum (Cryptosporidium parvum, in Vicia villosa, BGF Iowa isolate, HCT-8), it took 210 nM to reach the 90% level (EC90). Moreover, the “% inhibition, 0 - 48 h V. villosa lectin (asexual)” value is 97.86% and 96.89% in the series with C. parvum (log [AN7973] 0.22); 97.05% and 95.66% in the series with C. parvum (log [AN7973] 0.52); 95.89% and 94.55% in the series on C. parvum (log [AN7973] 0.70); 95.12% and 93.55% in the series on C. parvum (log [AN7973] 1.00); 95.71% and 93.12% with C. parvum (log [AN7973] -0.25); 85.80% and 82.68% with C. parvum (log [AN7973] -0.73). For the same compound, the “% inhibition, 0 - 48 h V. villosa lectin (asexual)” value in the series on C. parvum (log [AN7973] -1.69) was -8.97% and -7.81%; with C. parvum (log [AN7973] -2.16) it was -1.87% and -6.19%. The microsomal CLint in series [1] is less than 1 µL/min/mg.
